Data reported in ChEMBL document CHEMBL1201862, “PubChem BioAssay data set” (2004).
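These data come from cells grown in 96-well plates and exposed to compound for 48 hours at five concentrations. The concentration for 50% growth inhibition is given as GI50.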 Active and inactive are the calls of the source. Rule as the data show it: active = GI50 up to about 1.1 µM and inactive = higher.

Legend:
Test in all cases: inhibition of tumour cell growth, NCI panel, 48 h
KM-20L2 = system: KM-20L2
SNB-19 = system: SNB-19
HT-29 = system: HT-29
OVCAR-5 = system: OVCAR-5
DMS-114 = system: DMS-114
HOP-18 = system: HOP-18
EKVX = system: EKVX
CCRF-CEM = system: CCRF-CEM
KM12 = system: KM12
SF-268 = system: SF-268
RPMI-8226 = system: RPMI-8226
NCI-H460 = system: NCI-H460
OVCAR-4 = system: OVCAR-4
HOP-92 = system: HOP-92
UACC-62 = system: UACC-62
XF498 = system: XF498
NCI-H522 = system: NCI-H522
MOLT-4 = system: MOLT-4
SK-MEL-2 = system: SK-MEL-2
DLD-1 = system: DLD-1
IGROV-1 = system: IGROV-1
Malme-3M = system: Malme-3M
COLO 205 = system: COLO 205
SW-620 = system: SW-620
OVCAR-8 = system: OVCAR-8
HCT-116 = system: HCT-116
A498 = system: A498
HCT-15 = system: HCT-15
SK-MEL-28 = system: SK-MEL-28
HOP-62 = system: HOP-62
NCI-H23 = system: NCI-H23
NCI-H226 = system: NCI-H226
SF-295 = system: SF-295
OVCAR-3 = system: OVCAR-3
NCI/ADR-RES = system: NCI/ADR-RES
U-251 = system: U-251
UACC-257 = system: UACC-257
SN12C = system: SN12C
M19-MEL = system: M19-MEL
UO-31 = system: UO-31
K562 = system: K562
A549 = system: A549
HL-60 = system: HL-60
SK-MEL-5 = system: SK-MEL-5
LOX IMVI = system: LOX IMVI
MCF7 = system: MCF7
SK-OV-3 = system: SK-OV-3
RXF 393 = system: RXF 393
CAKI-1 = system: CAKI-1
SF-539 = system: SF-539
HCC 2998 = system: HCC 2998
DMS-273 = system: DMS-273
SNB-75 = system: SNB-75
ACHN = system: ACHN
786-0 = system: 786-0
M14 = system: M14
SNB-78 = system: SNB-78
TK-10 = system: TK-10
LXFL 529 = system: LXFL 529

Measured: GI50

CCCC[S+]([O-])CC(CO)NC(=O)/C=C/c1c(C)[nH]c(=O)[nH]c1=O (stereo not drawn)
inactive: KM-20L2 5.64 µM | SNB-19 4.89 µM | HT-29 14.8 µM | OVCAR-5 14.7 µM | DMS-114 6.41 µM | HOP-18 31.6 µM | EKVX 8.47 µM | CCRF-CEM 6.65 µM | KM12 5.64 µM | SF-268 2.42 µM | RPMI-8226 9.02 µM | NCI-H460 3.12 µM | HOP-92 11.8 µM | UACC-62 7.52 µM | XF498 4.18 µM | NCI-H522 5.77 µM | MOLT-4 8.3 µM | SK-MEL-2 6.34 µM | DLD-1 12.1 µM | IGROV-1 7.29 µM | Malme-3M 3.14 µM | COLO 205 16.7 µM | SW-620 16.5 µM | OVCAR-8 6.73 µM | HCT-116 10 µM | A498 7.8 µM | SK-MEL-28 6.5 µM | HOP-62 8.93 µM | NCI-H23 7.98 µM | NCI-H226 11.7 µM | SF-295 8.38 µM | OVCAR-3 5 µM | NCI/ADR-RES 12.4 µM | U-251 4.03 µM | UACC-257 11 µM | SN12C 5.92 µM | M19-MEL 2.22 µM | UO-31 13.3 µM | K562 8.97 µM | A549 10.8 µM | HL-60 7.23 µM | SK-MEL-5 4.3 µM | LOX IMVI 7.62 µM | MCF7 8.67 µM | SK-OV-3 10.7 µM | RXF 393 11 µM | CAKI-1 18.9 µM | SF-539 7.38 µM | HCC 2998 8.28 µM | DMS-273 9.75 µM | SNB-75 6.85 µM
active: OVCAR-4 0.203 µM
31.8 µM: HCT-15

O=C(NCC(=O)N1CCOC1=O)OCc1ccccc1
inactive: KM-20L2 > 100 µM | SNB-19 > 100 µM | HT-29 > 100 µM | DMS-114 > 100 µM | HOP-18 > 100 µM | EKVX > 100 µM | CCRF-CEM > 100 µM | KM12 > 100 µM | ACHN > 100 µM | SF-268 > 100 µM | RPMI-8226 > 100 µM | NCI-H460 > 100 µM | OVCAR-4 > 100 µM | HOP-92 > 100 µM | UACC-62 > 100 µM | XF498 > 100 µM | NCI-H522 > 100 µM | MOLT-4 > 100 µM | SK-MEL-2 > 100 µM | DLD-1 > 100 µM | IGROV-1 > 100 µM | COLO 205 > 100 µM | SW-620 > 100 µM | OVCAR-8 > 100 µM | HCT-116 > 100 µM | A498 > 100 µM | SK-MEL-28 > 100 µM | 786-0 > 100 µM | HOP-62 > 100 µM | NCI-H23 > 100 µM | NCI-H226 > 100 µM | M14 > 100 µM | SF-295 > 100 µM | OVCAR-3 > 100 µM | U-251 > 100 µM | UACC-257 > 100 µM | SNB-78 > 100 µM | SN12C > 100 µM | TK-10 > 100 µM | M19-MEL > 100 µM | UO-31 > 100 µM | K562 > 100 µM | A549 > 100 µM | HL-60 > 100 µM | SK-MEL-5 > 100 µM | LOX IMVI > 100 µM | SK-OV-3 > 100 µM | RXF 393 > 100 µM | SF-539 > 100 µM | HCC 2998 > 100 µM | DMS-273 > 100 µM | SNB-75 > 100 µM
> 100 µM: HCT-15

COc1ccc(/C(Cl)=C(\CN(C)C)c2ccc(OC)c(OC)c2)cc1OC
inactive: KM-20L2 > 100 µM | SNB-19 > 100 µM | HT-29 > 100 µM | HOP-18 > 100 µM | EKVX > 100 µM | CCRF-CEM > 100 µM | ACHN > 100 µM | SF-268 > 100 µM | RPMI-8226 > 100 µM | NCI-H460 > 100 µM | UACC-62 > 100 µM | XF498 19.8 µM | NCI-H522 > 100 µM | MOLT-4 > 100 µM | SK-MEL-2 55.6 µM | IGROV-1 > 100 µM | Malme-3M > 100 µM | COLO 205 > 100 µM | SW-620 > 100 µM | OVCAR-8 > 100 µM | A498 > 100 µM | SK-MEL-28 > 100 µM | NCI-H23 > 100 µM | NCI-H226 > 100 µM | SF-295 > 100 µM | OVCAR-3 > 100 µM | LXFL 529 > 100 µM | U-251 > 100 µM | SNB-78 > 100 µM | SN12C > 100 µM | TK-10 > 100 µM | M19-MEL > 100 µM | UO-31 > 100 µM | K562 > 100 µM | HL-60 21.2 µM | SK-MEL-5 > 100 µM | LOX IMVI > 100 µM | SK-OV-3 > 100 µM | CAKI-1 > 100 µM | SF-539 > 100 µM | DMS-273 > 100 µM
> 100 µM: HCT-15

Cc1ccc(C)c(NC(=O)CCC(=O)CC(=O)C(C)(C)C)c1
inactive: KM-20L2 > 100 µM | SNB-19 > 100 µM | HT-29 > 100 µM | OVCAR-5 > 100 µM | DMS-114 > 100 µM | HOP-18 > 100 µM | EKVX > 100 µM | CCRF-CEM > 100 µM | KM12 > 100 µM | ACHN > 100 µM | SF-268 > 100 µM | RPMI-8226 > 100 µM | NCI-H460 > 100 µM | OVCAR-4 > 100 µM | HOP-92 > 100 µM | UACC-62 > 100 µM | XF498 > 100 µM | NCI-H522 > 100 µM | MOLT-4 > 100 µM | SK-MEL-2 > 100 µM | DLD-1 > 100 µM | IGROV-1 > 100 µM | Malme-3M > 100 µM | COLO 205 > 100 µM | SW-620 > 100 µM | OVCAR-8 > 100 µM | HCT-116 > 100 µM | A498 > 100 µM | SK-MEL-28 > 100 µM | 786-0 > 100 µM | HOP-62 > 100 µM | NCI-H23 > 100 µM | M14 > 100 µM | OVCAR-3 > 100 µM | LXFL 529 > 100 µM | U-251 > 100 µM | UACC-257 > 100 µM | SNB-78 > 100 µM | SN12C > 100 µM | TK-10 > 100 µM | M19-MEL > 100 µM | UO-31 > 100 µM | K562 > 100 µM | A549 > 100 µM | SK-MEL-5 > 100 µM | LOX IMVI > 100 µM | SK-OV-3 > 100 µM | RXF 393 > 100 µM | CAKI-1 > 100 µM | SF-539 > 100 µM | HCC 2998 > 100 µM | DMS-273 > 100 µM | SNB-75 > 100 µM
> 100 µM: HCT-15

COc1cc(C2c3cc4c(cc3[C@@H](Nc3ccc(Oc5ccccc5)cc3)C3COC(=O)[C@H]23)OCO4)cc(OC)c1O (stereo partly drawn)
active: DMS-114 0.597 µM | CCRF-CEM 0.431 µM | RPMI-8226 1.08 µM | NCI-H460 0.0867 µM | UACC-62 0.869 µM | MOLT-4 0.329 µM | HCT-116 0.979 µM | HOP-62 0.851 µM | A549 0.916 µM | HL-60 0.362 µM | MCF7 0.4 µM | SF-539 0.536 µM
inactive: KM-20L2 1.17 µM | SNB-19 3.27 µM | HT-29 1.74 µM | OVCAR-5 > 61 µM | HOP-18 4.47 µM | EKVX > 39.7 µM | KM12 4.57 µM | SF-268 2.52 µM | OVCAR-4 7.11 µM | XF498 5.26 µM | NCI-H522 2.25 µM | SK-MEL-2 > 29.9 µM | DLD-1 3.95 µM | IGROV-1 4.38 µM | Malme-3M 3.7 µM | COLO 205 1.5 µM | SW-620 2.07 µM | OVCAR-8 4.5 µM | A498 1.24 µM | SK-MEL-28 > 42.3 µM | NCI-H23 1.12 µM | NCI-H226 1.56 µM | SF-295 1.27 µM | OVCAR-3 > 62.2 µM | NCI/ADR-RES 9.02 µM | U-251 2.36 µM | UACC-257 1.22 µM | SNB-78 > 61 µM | SN12C 2.7 µM | M19-MEL 4.36 µM | UO-31 2.59 µM | K562 1.14 µM | SK-MEL-5 1.58 µM | LOX IMVI 2.43 µM | SK-OV-3 4.93 µM | RXF 393 1.29 µM | CAKI-1 1.35 µM | HCC 2998 1.64 µM
1.3 µM: HCT-15
